Where “and” joins values, the source holds several entries; their conditions need not be identical. Equal entries are not always repeated.
Assays:
PGE2 = PGE2 levels analysis by ELISA in THP-1 culture supernatants; assay type: cell-based, human; details: THP-1, compounds 1 h, then AGEs 50 μg/mL
Method: PGE2 levels analysis: ELISA-based method was employed to identify the concentration of PGE2 in culture supernatants of THP-1 cells that was initially exposed with compounds for 1 h, and then stimulated with AGEs (50 μg/mL). All the steps were followed according to the manufacturer's protocols.

[1] = tested on: MGO-AGEs-induced ROS in THP-1 monocytes; assay: Anti-oxidation activity, DCFH-DA assay of MGO-AGEs-mediated ROS in monocytes; assay type: cell-based, human; details: for ROS (DCF fluorescence) in MGO-AGEs-treated monocytes: 100 μM (maximum inhibition), MGO-AGEs 50 μg/mL, 24 h; for antioxidant activity / ROS production inhibition (in words): MGO-AGEs 50 μg/mL-treated THP-1 monocytes
Method: Anti-oxidation activity: The measurement of effect of derivatives on AGEs-mediated ROS was based on the previously reported protocol of Soumyarani and colleagues with slight amendments. Initially, 1×10^6 monocytes/mL were loaded in sterile 96-well flat bottom black fluorescent plate, and pre-incubated with DCFH-DA (10 μM; Sigma-Aldrich Chemical Corporation, St. Louis, Missouri, USA) for 45 min at 37° C. Followed by the incubation, antiglycating, non-toxic carbazole-linked triazole derivatives (10, 30, 50, and 100 μM) were added to the wells for 1 h before co-treatment of cells with MGO-AGEs (50 μg/mL) for next 24 h. Next, the fluorometric measurement of converted DCFH into oxidized DCF product was carried out via spectrofluorimeter (Varioskanmicroplate reader, Thermo Fisher Scientific, USA) using 485 nm excitation and 520 nm emission wavelengths. Various controls were plated in each experiment. Wells containing culture RPMI with MGO-AGEs (50 μg/mL) and H2O2 ([…]) served as positive controls, while cells containing BSA were taken as negative control.

COX-2 = COX-2 protein levels analysis by immunoblotting; assay type: cell-based; details: human monocytes co-treated with MGO-AGEs 50 μg/mL; immunoblot densitometry
Method: COX-2 protein levels analysis: The 50 μg/mL of protein was loaded onto 10% sodium dodecyl sulfate-polymerized acrylamide gel electrophoresis (SDS-PAGE), and transferred to nitrocellulose membranes using power blotter XL System (Invitrogen; Thermo Fisher Scientific). Subsequently, the membrane was incubated for 1 h in 1% bovine serum albumin in PBS with 0.1% Tween-20 to block unspecified binding. The protein bands of the membrane were probed with primary monoclonal antibody COX-2 (Thermo Fisher Scientific, Waltham, MA, USA), and B-actin (Cloud-Clone Corp., Wuhan, China) for overnight at 4° C. Following incubation, the membrane was rinsed with tris buffer saline tween (TBST) three times, and then exposed to secondary antibody (HRP mouse mono anti-rabbit IgG; Abeam, Cambridge, UK) at room temperature for an hour. The washing was again carried three times with TBST, and then the membrane was exposed to ECL (Sangon biotech, Shanghai, China) to visualize the bands in Western Blot Detection System (Thermo Fisher Scientific, Waltham, MA, USA). The densitometry of immuno-positive COX-2, and β-actin bands was used by Image J.

[2] = tested on: NF-κB (p65) translocation in monocytes; assay: NF-κB (p65) translocation analysis by immunocytochemistry; assay type: cell-based, human; details: compounds 100 μM, 1 h pre-incubation; AGEs 50 μg/mL 1 h; MGO-AGEs control 75 RFU, BSA 11 RFU
Method: NF-κB (p^65) translocation analysis: The monocytes at the density of 1×10^6 cells/mL were pre-incubated with compounds (100 μM) for an h, and then co-incubated with AGEs (50 μg/mL) for another 1 h in a 24-well plate at 37° C. Following treatment, cells were fixed with paraformaldehyde (4% PFA; 10 min), and permeabilized with Triton X-100 (0.2%; 10 min). Next, the cells were rinsed with chilled PBS three times, and incubated with bovine serum albumin (1% BSA; 1 h) to block the non-specific binding sites. Cells were exposed to primary antibody against NF-κB (p 65) (1:300 dilution, Thermo Fisher Scientific, Waltham, MA, USA) for overnight at 4° C. Subsequently followed by washing the cells with chilled PBS three times, secondary antibody (polyclonal fluorescein isothiocyanate (FITC)-conjugated antibody) to rabbit IgG (1:1000 dilution, Abeam, Cambridge, UK) was used.
Nuclei were counterstained by using DAPI (Thermo Fisher Scientific, Waltham, MA, USA). The BSA-treated monocytes (50 μg/mL) had served as a negative control, while AGEs-treated monocytes (50 μg/mL) as positive control. All the images were taken by using Nikon microscope (Nikon, Tokyo, Japan). The quantification of images was carried out via ImageJ (Image processing and analysis in Java-NIH).

[3] = tested on: MGO-mediated BSA glycation; assay: In vitro antiglycation activity, MGO-BSA glycation assay (fluorescence); assay type: biochemical, bovine; details: for IC50 / % inhibition of MGO-BSA glycation: BSA 10 mg/mL, MGO 0.1 M, 24 h, 37° C.; for IC50: read-out: IC50 antiglycation, MGO-BSA model; for % inhibition of MGO-BSA glycation: compounds at 1 mM
Method: In vitro antiglycation activity: The MGO-BSA assay was performed as per optimized protocol of Jahan, H. et al with slight modifications. Initially, the antiglycation activity of parent compound carbazole (1), and carbazole-linked 1,2,3 triazoles 2-16 were identified at 1 mM using MGO-BSA model. […] BSA (10 mg/mL) incubated with MGO (0.1 M) for 24 h at 37° C. using phosphate-azide buffer (0.1 mM), served as a positive control. The wells with BSA only were taken as negative control. Whereas, rutin and quercetin were used as standard antiglycation agents. After 24 h of incubation, the fluorescence of each well was measured by using microplate reader (Varioskan lux, Thermo Fisher Scientific, 319 Scientific, USA) at 355 nm excitation, and 460 nm emission.
The % inhibition of MGO-BSA-mediated by carbazole-triazole derivatives was quantified by using the following formula: […]
The IC50 of active antiglycation compounds were identified by using EZ-FIT Enzyme Kinetics Program (Perrella Scientific Inc., Amherst, USA).

Row | SMILES | effect on PGE2 levels (in words) (PGE2) | ROS (DCF fluorescence) in MGO-AGEs-treated monocytes [1] | antioxidant activity / ROS production inhibition (in words) [1] | reduction in COX-2 levels compared to MGO-BSA-treated cells (COX-2) | NF-κB translocation in MGO-AGEs-treated monocytes [2] | antiglycation activity in MGO-BSA model (in words) [3] | IC50 [3] | % inhibition of MGO-BSA glycation [3]
1 | O=C(Cn1cc(Cn2c3ccccc3c3ccccc32)nn1)c1ccc([N+](=O)[O-])cc1 [Compound 12, 2-(4-((9H-Carbazole-9-yl)methyl)-1H-1,2,3-triazole-1-y1)-1-(4-nitrophenyl)ethan-1-one] | reduced PGE2 levels significantly | 6.32 RFU | excellent ROS production inhibition | 2.11 fold and 3 fold | 33 RFU | excellent antiglycation activity | 76.1 ± 6 µM | 83.7%
2 | Cc1ncc([N+](=O)[O-])n1CCn1cc(Cn2c3ccccc3c3ccccc32)nn1 [Compound 13, 9-((1-(2-(2-Methyl-5-nitro-1H-imidazol-1-yl)ethyl)-1H1,2,3-triazol-4-yl)methyl)-9H-carbazole] | reduced PGE2 levels significantly | 8.75 RFU | excellent ROS production inhibition |  | 54 RFU | good activity | 135 ± 5 µM | 77.8%
3 | N.S=C(S)N1CCCC1 [PDTC, reference compound] | relatively more suppression than quercetin | 7.84 RFU |  | 1.60 fold | 45 RFU |  |  | 
4 | C[C@@H]1O[C@@H](OC[C@H]2O[C@@H](Oc3c(-c4ccc(O)c(O)c4)oc4cc(O)cc(O)c4c3=O)[C@H](O)[C@@H](O)[C@@H]2O)[C@H](O)[C@H](O)[C@H]1O [Rutin, 2-(3,4-Dihydroxyphenyl)-5,7-dihydroxy-4-oxo-4H-chromen-3-yl 6-O-(6-deoxy-alpha-L-mannopyranosyl)-beta-D-glucopyranoside, reference compound] | relatively more suppression than quercetin | 7.44 RFU |  | 1.65 fold | 43 RFU |  | 104 ± 2 µM | 67%

— patent US11925622B2, “Role of novel carbazole linked 1, 2, 3- triazole analogs in alleviating methylglyoxal-mediated late diabetic vascular complications” (priority 2021, dated 2024)
